Experimental data taken from ChEMBL document CHEMBL1127485, “Photoactivatable 2-(4'-azidotetrafluorophenyl)-5-tert-butyl-1,3-dithiane-bis- sulfone and related compounds as candidate irreversible probes for the GABA-gated chloride channels” (J Med Chem, 1994).

Tests used:
[1] = Binding affinity for convulsant site of GABA-A receptor in bovine cortical P2 membranes using [3H]TBOB as radioligand (Unstable); format: cell membranes, Bos taurus
[2] = Binding affinity towards convulsant site of the GABAA receptor was determined in bovine cortical P2 membranes using [3H]TBOB as radioligand; format: cell membranes

Compound	Ki [1]	Ki [2]
CC(C)(C)C1CSC(c2c(F)c(F)c(N=[N+]=[N-])c(F)c2F)SC1 (stereo unspecified)	Unstable	
CC(C)(C)C1CSC(c2cc(O)ccc2[N+](=O)[O-])SC1 (stereo unspecified)		8000 nM
CC(C)(C)C12COC(C3=CC(=O)C(Br)=CC3=[N+]=[N-])(OC1)OC2		600 nM
CC(C)(C)C1CS(=O)(=O)C(c2ccccc2)S(=O)(=O)C1 (stereo unspecified)		510 nM
CC(C)(C)C1CS(=O)(=O)C(c2ccc(Br)cc2)S(=O)(=O)C1 (stereo unspecified)		3 nM
CC(C)(C)C12COC(c3ccccc3)(OC1)OC2		18 nM
CC(C)(C)C1CS(=O)(=O)C(c2c(F)c(F)c(N=[N+]=[N-])c(F)c2F)S(=O)(=O)C1 (stereo unspecified)		180 nM
CC(C)(C)C1CS(=O)(=O)C(c2cc(O)ccc2[N+](=O)[O-])S(=O)(=O)C1 (stereo unspecified)		52000 nM
CC(C)(C)C1CSC(c2ccc(Br)cc2)SC1 (stereo unspecified)		280 nM
CC(C)(C)C1CS(=O)(=O)C(c2cc(O)c(Br)cc2[N+](=O)[O-])S(=O)(=O)C1 (stereo unspecified)		> 30000 nM
CC(C)(C)C1CS(=O)(=O)C(C2=CC(=[N+]=[N-])C=C(Br)C2=O)S(=O)(=O)C1 (stereo unspecified)		> 30000 nM
CC(C)(C)C1CS(=O)(=O)C(c2cc([N+](=O)[O-])ccc2O)S(=O)(=O)C1 (stereo unspecified)		18000 nM
CC(C)(C)C1CSC(C2=CC(=O)C=CC2=[N+]=[N-])SC1 (stereo unspecified)		30000 nM
CC(C)(C)C1CSC(c2cc([N+](=O)[O-])ccc2O)SC1 (stereo unspecified)		560 nM
CC(C)(C)C1CSC(C2=CC(=O)C(Br)=CC2=[N+]=[N-])SC1 (stereo unspecified)		3600 nM
CC(C)(C)C1CS(=O)(=O)C(C2=CC(=[N+]=[N-])C=CC2=O)S(=O)(=O)C1 (stereo unspecified)		250000 nM
CC(C)(C)C12COC(c3ccccc3O)(OC1)OC2		59 nM
CC(C)(C)C1CSC(c2cc(O)c(Br)cc2[N+](=O)[O-])SC1 (stereo unspecified)		4500 nM
CC(C)(C)C1CS(=O)(=O)C(c2cc([N+](=O)[O-])cc(Br)c2O)S(=O)(=O)C1 (stereo unspecified)		530 nM
CC(C)(C)C1CSC(c2cc([N+](=O)[O-])cc(Br)c2O)SC1 (stereo unspecified)		220 nM
CC(C)(C)C1CSC(C2=CC(=[N+]=[N-])C=C(Br)C2=O)SC1 (stereo unspecified)		2200 nM
CC(C)(C)C1CS(=O)(=O)C(c2ccccc2O)S(=O)(=O)C1 (stereo unspecified)		23900 nM
CC(C)(C)C1CSC(c2ccccc2O)SC1 (stereo unspecified)		1800 nM
CC(C)(C)C1CSC(c2ccccc2)SC1 (stereo unspecified)		250 nM
CC(C)(C)C1CSC(C2=CC(=[N+]=[N-])C=CC2=O)SC1 (stereo unspecified)		14000 nM
CC(C)(C)C12COC(c3ccc(Br)cc3)(OC1)OC2		9 nM
